Reference: ChEMBL document CHEMBL2146428, “Luminmycins A-C, cryptic natural products from Photorhabdus luminescens identified by heterologous expression in Escherichia coli” (J Nat Prod, 2012)
In brackets after ≈: the same amount, converted by molar mass. Activity calls are given as the source filed them. No cut-off for these calls is given here.

Tests used:
Candida albicans = experiment: Antifungal activity against Candida albicans after 16 hrs by serial dilution method; assay type: functional
HCT-116 [1] = experiment: Cytotoxicity against human HCT116 cells assessed as cell viability at 100 ug/mL after 5 days by MTT assay relative to control; assay type: functional, cell-based
HCT-116 [2] = experiment: Cytotoxicity against human HCT116 cells assessed as cell viability after 5 days by MTT assay relative to control; assay type: functional, cell-based; conditions: HCT-116, 120 h

SMILES | Activity (Candida albicans) | Activity (HCT-116 [1]) | MIC (Candida albicans) [µg/mL] | IC50 (HCT-116 [2]) [nM]
CCCCCCC/C=C/C=C/C(=O)N[C@H](C(=O)N[C@@H](CCCCN)C(=O)N[C@@H](C)C(O)CC(=O)O)[C@@H](C)O (stereo partly specified) | inactive | inactive | – | –
CCCCCCC/C=C/C=C/C(=O)N[C@H](C(=O)N[C@H]1C[C@@H](O)CCNC(=O)/C=C/[C@H](C)NC1=O)[C@@H](C)O [GLIDOBACTIN A] | – | – | 2 (≈ 3.84 µM) | 33.3
CCCCCCC/C=C/C=C/C(=O)N[C@H](C(=O)N[C@H]1CCCCNC(=O)/C=C/[C@H](C)NC1=O)[C@@H](C)O [LUMINMYCIN A] | inactive | – | – | 91.8
